In US20090011418A1, “FUNCTIONAL TOLL-LIKE RECEPTORS (TLR) ON MELANOCYTES AND MELANOMA CELLS AND USES THEREOF” (JOHN WAYNE CANCER INSTITUTE, priority 2007, published 2009):

Key:
PBLs = experiment: FITC-LPS fluorescence microscopy staining; format: binding, human; conditions: 20 μg/ml FITC-LPS, 20 min, fixed cells
Procedure: Cells were fixed with 4% paraformaldehyde in PBS for 10 min, and then incubated inside a 37° C. humidified atmosphere containing 5% CO2 for 20 min in RPMI 1640 medium supplemented with 10% FBS and 20 μg/ml of fluorescein isothiocyanate (FITC)-LPS (Sigma, St Louis, Mo.). After washing, cells were visualized using an Olympus IX70 fluorescence microscope. The images were recorded using an Olympus C-3030 Zoom Camedia Digital Camera. […] The inventors employed FITC-LPS to assess binding to TLR4 on the cell surface of melanoma lines. PIC-FITC and zymosan-FITC were not available for assessment. […] The FITC-LPS analysis confirmed TLR4 receptor staining on the melanoma cell surface.

[1] = molecular target: T1, TLR4 on the cell surface of melanoma lines (Homo sapiens, UniProt O00206+Q9Y6Y9); experiment: FITC-LPS fluorescence microscopy binding; conditions: 20 μg/ml FITC-LPS, 20 min, fixed cells
T1 construct: endogenous in cells; host or cells: human melanoma cell lines (fixed with paraformaldehyde); PBLs as comparison
Procedure: Cells were fixed with 4% paraformaldehyde in PBS for 10 min, and then incubated inside a 37° C. humidified atmosphere containing 5% CO2 for 20 min in RPMI 1640 medium supplemented with 10% FBS and 20 μg/ml of fluorescein isothiocyanate (FITC)-LPS (Sigma, St Louis, Mo.). After washing, cells were visualized using an Olympus IX70 fluorescence microscope. The images were recorded using an Olympus C-3030 Zoom Camedia Digital Camera.
The inventors employed FITC-LPS to assess binding to TLR4 on the cell surface of melanoma lines. PIC-FITC and zymosan-FITC were not available for assessment. […] The FITC-LPS analysis confirmed TLR4 receptor staining on the melanoma cell surface.

T1 sequence (O00206 24-839): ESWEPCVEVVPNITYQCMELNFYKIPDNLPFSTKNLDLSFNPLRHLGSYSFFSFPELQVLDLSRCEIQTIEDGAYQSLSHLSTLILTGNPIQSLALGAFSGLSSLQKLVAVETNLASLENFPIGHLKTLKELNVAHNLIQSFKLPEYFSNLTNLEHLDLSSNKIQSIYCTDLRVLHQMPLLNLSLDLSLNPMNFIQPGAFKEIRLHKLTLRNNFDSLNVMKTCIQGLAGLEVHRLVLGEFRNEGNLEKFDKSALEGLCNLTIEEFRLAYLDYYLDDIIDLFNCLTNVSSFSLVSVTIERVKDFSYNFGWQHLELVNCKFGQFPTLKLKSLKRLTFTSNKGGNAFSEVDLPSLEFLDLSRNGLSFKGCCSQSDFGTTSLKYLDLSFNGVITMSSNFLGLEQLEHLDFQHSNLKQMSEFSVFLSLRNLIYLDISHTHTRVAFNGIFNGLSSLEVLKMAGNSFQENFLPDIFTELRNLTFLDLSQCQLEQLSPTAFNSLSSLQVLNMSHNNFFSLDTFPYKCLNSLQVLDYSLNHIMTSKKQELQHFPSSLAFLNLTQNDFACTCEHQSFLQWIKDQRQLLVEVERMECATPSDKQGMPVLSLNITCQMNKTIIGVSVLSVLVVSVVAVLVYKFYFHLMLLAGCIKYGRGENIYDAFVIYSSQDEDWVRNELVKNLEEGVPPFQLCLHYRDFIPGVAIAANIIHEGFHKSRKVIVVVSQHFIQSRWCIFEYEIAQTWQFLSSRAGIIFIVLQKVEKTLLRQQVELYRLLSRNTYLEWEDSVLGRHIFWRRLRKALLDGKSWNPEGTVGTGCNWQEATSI
T1 sequence (Q9Y6Y9 17-160 limits assumed): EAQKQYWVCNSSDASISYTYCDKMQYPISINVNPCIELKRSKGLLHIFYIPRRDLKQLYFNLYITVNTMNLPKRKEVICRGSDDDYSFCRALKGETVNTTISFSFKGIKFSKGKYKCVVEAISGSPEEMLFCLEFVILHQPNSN

fluorescein isothiocyanate (FITC)-LPS [FITC-LPS]
staining intensity of PBLs compared with melanoma cells (PBLs): stained with more intensity | binding to melanoma cell surface (staining) [1]: direct binding of LPS to melanoma cells
